# US20100004222A1, “Amide Derivatives as Ion-Channel Ligands and Pharmaceutical Compositions and Methods of Using the Same” (Renovis, Inc., priority 2006, published 2010)
# Experiments:
# [1] = Pharmacokinetic evaluation following intravenous and oral administration in rats; format: in vivo; conditions: male, Sprague-Dawley, plasma, rat; for bioavailability: AUCinf (PO)/AUCinf (IV), dose normalized, PO 5 mg/kg, read-out: Oral Bioavailability F (%); for clearance: non-compartmental analysis, read-out: In vivo Clearance (converted)
# Description: Male Sprague-Dawley rats are acclimatized for at least 24 hours prior to experiment initiation. During acclimation period, all animals receive food and water ad libitum. However, food but not water is removed from the animal's cages at least 12 hours before initiation of the experiment. During the first 3 hours of experimentation, the animals receive only water ad libitum. At least three animal each are tested for intravenous and oral dosage. For intravenous formulation, compounds were dissolved (0.25 to 1 mg/mL) in a mixture of 3% dimethyl sulfoxide, 40% PEG 400 and the rest percentage of 40% Captisol in water (w/v). For oral formulation, compounds of this invention are dissolved (2 mg/mL) in a mixture of 5% of 10% Tween 80 in water (v/v) and 95% of 0.5% methyl cellulose in water (w/v). The animals are weighed before dosing. The determined body weight is used to calculate the dose volume for each animal.
# Dose volume(mL/kg)=1 mg/kg/formulation concentration(mg/mL)
# In instances where the formulation concentrations were less than 0.5 mg/mL, the dosing volume is about 2 mL/kg. PO rats are typically dosed through oral gavage at 2.5 mL/kg to achieve a dose level of 5 mg/kg. For IV dosing, blood samples are collected (using a pre-heparinized syringe) via the jugular vein catheter at 2, 5, 15, 30, 60, 120, 180, 300, 480, and 1440 minutes post dosing. For PO dosing, blood samples are collected (using a pre-heparinized syringe) via the jugular vein catheter before dosing and at 5, 15, 30, 60, 120, 180, 300, 480, and 1440 minutes post dosing. About 250 uL of blood is obtained at each time point from the animal. Equal volumes of 0.9% normal saline are replaced to prevent dehydration. The whole blood samples are maintained on ice until centrifugation. Blood samples are then centrifuged at 14,000 rpm for 10 minutes at 4° C. and the upper plasma layer transferred into a clean vial and stored at −80° C. The resulting plasma samples are then analyzed by liquid chromatography-tandem mass spectrometry. Following the measurement of plasma samples and dosing solutions, plasma concentration-time curve is plotted. Plasma exposure is calculated as the area under the concentration-time curve extrapolated to time infinite (AUCinf). The AUCinf is averaged and the oral bioavailability (% F) for individual animal is calculated as:
# AUCinf (PO)/AUCinf (IV), normalized to their respective dose levels. The % F is reported as the mean % F of all animals dosed orally with the compound of the invention at the specified level (Table 6).
# In vivo clearance in the rat was calculated by conducting a non-compartmental analysis of the pharmacokinetic profile using WinNonlin software.
# VR1 = VR1 (Homo sapiens, UniProt Q8NER1); experiment: Calcium uptake assay, low pH (proton) agonist; format: cell-based; design: expressed in transfected cells; host or cells: T-REx HEK 293 (Invitrogen), pcDNA5/TO vector; conditions: HEK293; 0.3 μM compound; low pH (protons) as agonist; HEK 293 cells expressing hVR1; read-out: Low pH % Inhib. @ 0.3 μM
# VR1, sequence (Q8NER1 whole entry): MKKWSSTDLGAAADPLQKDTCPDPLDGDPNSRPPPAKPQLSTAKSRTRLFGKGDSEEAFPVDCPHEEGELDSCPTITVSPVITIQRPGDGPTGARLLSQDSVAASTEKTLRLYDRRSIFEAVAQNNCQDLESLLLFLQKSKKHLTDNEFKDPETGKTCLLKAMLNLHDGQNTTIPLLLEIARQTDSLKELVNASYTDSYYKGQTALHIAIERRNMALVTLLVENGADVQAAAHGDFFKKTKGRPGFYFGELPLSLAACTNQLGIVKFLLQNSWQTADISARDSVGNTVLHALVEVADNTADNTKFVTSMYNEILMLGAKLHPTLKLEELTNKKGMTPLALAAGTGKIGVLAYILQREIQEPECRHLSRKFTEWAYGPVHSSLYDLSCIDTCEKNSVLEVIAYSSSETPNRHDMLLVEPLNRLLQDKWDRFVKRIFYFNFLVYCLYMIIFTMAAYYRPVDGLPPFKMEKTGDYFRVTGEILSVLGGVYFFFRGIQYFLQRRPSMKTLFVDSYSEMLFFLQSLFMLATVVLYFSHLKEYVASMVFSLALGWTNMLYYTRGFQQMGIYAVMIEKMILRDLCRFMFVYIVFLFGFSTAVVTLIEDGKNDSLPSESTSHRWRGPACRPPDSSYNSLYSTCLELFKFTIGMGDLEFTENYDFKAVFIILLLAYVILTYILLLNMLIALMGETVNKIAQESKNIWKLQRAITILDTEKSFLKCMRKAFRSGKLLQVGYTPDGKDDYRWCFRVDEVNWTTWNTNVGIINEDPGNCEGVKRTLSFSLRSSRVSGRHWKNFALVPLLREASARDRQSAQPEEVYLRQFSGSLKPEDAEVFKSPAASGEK
SMILES,bioavailability [1],clearance [1],inhibition at 0.3 µM (VR1)
Cc1cc(C#CC2CCCC2)ccc1C(=O)Nc1ccc2c(c1)OCC(CO)N2 (centres unmarked) [Compound 125],17%,33.7 mL/min/kg,–
"Cc1cc(/C=C/C(F)(F)F)ccc1C(=O)Nc1ccc2c(c1)N(C(=O)C1CC1)CC2 [Compound 402, (E)-N-(1-cyclopropanecarbonyl-2,3-dihydro-1H-indol-6-yl)-2-methyl-4-(3,3,3-trifluoro-prop-1-enyl)benzamide]",–,–,0%
Cc1cc(C#CC2CC2)ccc1C(=O)Nc1ccc2c(c1)OCC(CO)N2 (centres unmarked) [Compound 124],67%,20.7 mL/min/kg,–
COc1cc(/C=C/C(F)(F)F)ccc1C(=O)Nc1ccc2c(c1)OCCO2 [Compound 123],–,32 mL/min/kg,–
Cc1cc(/C=C/C(F)(F)F)ccc1C(=O)Nc1ccc2cc(CO)cnc2c1 [Compound 228],39%,37.4 mL/min/kg,–
Cc1cc(/C=C/C(F)(F)F)ccc1C(=O)Nc1ccc2cc(C(=O)O)cnc2c1 [Compound 301],–,–,43%
Cc1cc(/C=C/C(F)(F)F)ccc1C(=O)Nc1ccc2c(c1)OCC(CO)N2 (centres unmarked) [Compound 131],> 100%,21.6 mL/min/kg,–
Cc1cc(C#CC(C)(C)C)ccc1C(=O)Nc1cccc2c(Cl)nccc12 [Compound 199],–,–,67%
Cc1cc(/C=C/C(F)(F)F)ccc1C(=O)Nc1cnc2[nH]ccc2c1 [Compound 230],17%,15.3 mL/min/kg,–
"Cc1cc(/C=C/C(F)(F)F)ccc1C(=O)Nc1ccc2c(c1)C(=O)CCC2 [Compound 306, (E)-2-methyl-N-(8-oxo-5,6-7,8-tetrahydronaphthylen-2-yl)-4(3,3,3-trifluoroprop-1-enyl)benzamide]",–,–,51%
O=C(Nc1ccc2c(c1)OCC(CO)N2)c1ccc(C#CC2CCCC2)cc1F (centres unmarked) [Compound 126],35%,44.9 mL/min/kg,–
Cc1cc(/C=C/C(F)(F)F)ccc1C(=O)Nc1ccc2c(c1)OCCN2 [Compound 118],–,17.7 mL/min/kg,–
Cc1cc(/C=C/C(F)(F)F)ccc1C(=O)Nc1ccc2cccnc2c1 [Compound 224],> 100%,9.97 mL/min/kg,–
O=C(Nc1ccc2c(c1)OCC(CO)N2)c1ccc(/C=C/C(F)(F)F)cc1F (centres unmarked) [Compound 144],68%,31.5 mL/min/kg,–
O=C(Nc1cccc2cnccc12)c1ccc(/C=C/C(F)(F)F)cc1F [Compound 160],22%,85.4 mL/min/kg,–
Cc1cc(C#CC(C)(C)C)ccc1C(=O)Nc1ccc2c(c1)OC[C@@H](CO)N2 [Compound 184],17%,35.2 mL/min/kg,–
"Cc1cc(/C=C/C(F)(F)F)ccc1C(=O)Nc1cnc2c(c1)CC(O)CC2 (centres unmarked) [Compound 315, (E)-N-(6-hydroxy-5,6,7,8-tetrahydroquinolol-3-yl)-2-methyl-4-(3,3,3-trifluoroprop-1-enyl)benzamide]",–,–,51.3%
"Cc1cc(/C=C/C(F)(F)F)ccc1C(=O)Nc1ccc2ccc(O)nc2n1 [Compound 311, (E)-N-(7-hydroxy-1,8-naphthyridin-2-yl)-2-methyl-4-(3,3,3-trifluoroprop-1-en-1)benzamide]",–,–,20%
Cc1cc(/C=C/C(F)(F)F)ccc1C(=O)Nc1ccc2c(CO)n[nH]c2c1 [Compound 231],–,–,0%
CC(C)(C)C#Cc1ccc(C(=O)Nc2ccc3c(c2)OCC(CO)N3)c(F)c1 (centres unmarked) [Compound 138],36%,38.7 mL/min/kg,–
CS(=O)(=O)c1cc(C#CC2CCCC2)ccc1C(=O)Nc1ccc2c(c1)OCCO2 [Compound 159],–,–,0%
"CC(=O)N1CCCc2ccc(NC(=O)c3ccc(/C=C/C(F)(F)F)cc3C)cc21 [Compound 322, (E)-N-(1-acetyl-1,2,3,4-tetrahydroquinolin-7-yl)-2-methyl-4-(3,3,3-trifluoroprop-1-enyl)benzamide]",–,–,42.7%
CC(C)(C)C#Cc1ccc(C(=O)Nc2ccc3c(c2)OC[C@H](CO)N3)c(F)c1 [Compound 172],76%,41.2 mL/min/kg,–
"Cc1cc(/C=C/C(F)(F)F)ccc1C(=O)Nc1cnc2cc(C(C)(C)O)cnc2c1 [Compound 326, (E)-N-(7-(2-hydroxypropan-2-yl)-1,5-naphthyridin-3-yl)-2-methyl-4-(3,3,3-trifluoroprop-1-enyl)benzamide]",–,–,6.76%
"Cc1cc(/C=C/C(F)(F)F)ccc1C(=O)Nc1ccc2c(c1)N(C(=O)C(C)(C)C)CC2 [Compound 405, (E)-N-[1-(2,2-dimethyl-propionyl)-2,3-dihydro-1H-indol-6-yl]-2-methyl-4-(3,3,3-trifluoro-prop-1-enyl)benzamide]",–,–,14%
"Cc1cc(/C=C/C(F)(F)F)ccc1C(=O)Nc1cnc2cc(C(C)O)cnc2c1 (centres unmarked) [Compound 320, (E)-N-(7-(1-hydroxyethyl)-1,5-naphthyridin-3-yl)-2-methyl-4-(3,33-trifluoroprop-1-enyl)benzamide]",–,–,47%

# More lines, now with the values ahead:
bioavailability [1],clearance [1],inhibition at 0.3 µM (VR1),SMILES
42%,13 mL/min/kg,–,CC(C)(C)C#Cc1ccc(C(=O)Nc2ccc3c(c2)OCC(CO)N3)c(Cl)c1 (centres unmarked) [Compound 158]
1%,41.8 mL/min/kg,–,Cc1cc(C#CC(C)(C)C)ccc1C(=O)Nc1cnc2ccccc2c1 [Compound 181]
2%,44.3 mL/min/kg,–,Cc1nc2cc(NC(=O)c3ccc(C#CC(C)(C)C)cc3C)ccc2s1 [Compound 162]
66%,30.9 mL/min/kg,–,O=C(Nc1ccc2c(c1)OCC(CO)N2)c1ccc(C#CC2CC2)cc1F (centres unmarked) [Compound 127]
–,–,0%,O=C(Nc1ccc2c(c1)OCCN2)c1ccc(C#CC2CC2)nc1Cl [Compound 119]
63%,85.1 mL/min/kg,–,O=C(Nc1ccc2c(c1)OCCN2)c1ccc(/C=C/C(F)(F)F)cc1F [Compound 134]
–,–,102%,O=C(Nc1ccc2c(c1)OCC(CO)N2)c1ccc(C#CC2CC2)cc1Cl (centres unmarked) [Compound 156]
–,–,41.5%,"Cc1cc(/C=C/C(F)(F)F)ccc1C(=O)Nc1cnc2ncccc2c1 [Compound 321, (E)-2-methyl-N-(1,8-naphthyridin-3-yl)-4-(3,3,3-trifluoroprop-1-enyl)benzamide]"
53%,110 mL/min/kg,–,Cc1cc(C#CC(C)(C)C)ccc1C(=O)Nc1cccc2cnccc12 [Compound 163]
–,61 mL/min/kg,–,COc1cc(/C=C/C(F)(F)F)ccc1C(=O)Nc1ccc2c(c1)OCCN2 [Compound 122]
68%,1.88 mL/min/kg,–,O=C(Nc1ccc2c(c1)OCC(CO)N2)c1c(F)cc(C#CC2CC2)cc1F (centres unmarked) [Compound 129]
8%,7.7 mL/min/kg,–,Cc1nc2cc(NC(=O)c3ccc(/C=C/C(F)(F)F)cc3C)ccc2s1 [Compound 188]
–,–,10%,"Cc1cc(/C=C/C(F)(F)F)ccc1C(=O)Nc1ccc2c(c1)C(=O)N(CCO)C2=O [Compound 404, (E)-N-(2-(2-hydroxyethyl)-1,3-dioxoisoindolin-5-yl)-2-methyl-(3,3,3-trifluoroprop-1-enyl)benzamide]"
–,–,0.74%,CC(=O)c1cnc2cc(NC(=O)c3ccc(/C=C/C(F)(F)F)cc3C)cnc2c1 [Compound 324]
–,–,52%,C/C(=C\c1ccc(C(=O)Nc2cnc3ccccc3c2)c(C)c1)C(F)(F)F [Compound 316]
83%,15.6 mL/min/kg,–,O=C(Nc1ccc2c(c1)OCC(CO)N2)c1ccc(/C=C/C(F)(F)F)cc1Cl (centres unmarked) [Compound 157]
1%,33.5 mL/min/kg,–,CC(C)(C)C#Cc1ccc(C(=O)Nc2cnc3ccccc3c2)c(Cl)c1 [Compound 164]
